Measurements: US11471442B2, “Administration of gut-selective JAK3 inhibitor” (THERAVANCE BIOPHARMA R&D IP, LLC, priority 2020, dated 2022)

Test: Phase 1 single ascending dose (SAD, Part A) safety and tolerability in healthy subjects
Assay type: in vivo, human
Conditions: for Most frequent TEAEs: Apthous ulcer / Most frequent TEAEs: Back pain / Most frequent TEAEs: Diarrhea / Most frequent TEAEs: Headache / Most frequent TEAEs: Pain in extremity / Subjects with TEAEs: Any TEAE / Subjects with TEAEs: Moderate or severe TEAE / Subjects with TEAEs: Seriou TEAE / Subjects with TEAEs: TEAE leading to discontinuation / Total number of TEAEs: SAD, n = 6
Excerpt: This clinical study was the first in human study of a compound of formula (I). The purpose of this study was to assess the safety, tolerability and pharmacokinetics (PK) of the compound of formula (I) through single ascending dose administration (Part A) and multiple dose administrations (Part B) in healthy subjects.
The number and severity of treatment emergent adverse events (TEAE5) following single (Part A) or multiple (Parts B) oral doses of the compound of formula (I) and matching placebo, and changes in safety laboratory assessments, vital signs, and ECGs.
32 healthy, adult male and female subjects were enrolled in Part A. Four cohorts (A1 to A4) of 8 healthy subjects (6 active and 2 placebo) were evaluated.
In each cohort, healthy subjects meeting eligibility criteria were sequentially randomized in a 3:1 ratio to receive either the compound of formula (I) or matching placebo. Study drug was administered orally as a single dose on the morning of Day 1 following an overnight fast of at least 9.5 hours. Subjects were dosed in an upright (i.e., seated or standing) position and remained upright for 5 minutes following dosing prior to performing study procedures which require a posture change. Subjects were to remain fasted, except water, until after the 4-hour post-dose assessments were completed and the 4-hour post dose PK sample was collected. PK sampling for the compound of formula (I) in plasma and urine were taken Day 1 pre-dose and for 72 hours post-dose.
Safety was determined by evaluating physical examinations, vital signs, safety 12-lead electrocardiograms (ECGs) monitoring, clinical laboratory tests, and adverse events (AEs). For procedures scheduled to be performed at common times, collection of PK samples was collected as close as possible to the designated time. The cardiodynamic recordings via ECG extractions from the Holter monitor were conducted as close as possible prior to the corresponding PK sampling. Vital signs, followed by safety ECGs, were be taken before the PK sampling (or before the cardiodynamic sampling if scheduled at the same time), unless PK samples were late as a result in which case vital signs were taken following the PK sampling.
Safety analyses were performed using the Safety analysis set. Safety variables include vital signs, adverse events, clinical laboratory results (hematology, chemistry, coagulation, and urinalysis), and ECG parameters, such as Friderica's corrected QT interval (QTcF), PR interval, QT interval, QRS interval, and heart rate, from standard safety digital ECGs. Vital signs were summarized in terms of observed values and changes from baseline.

CN(C)C/C=C/C(=O)N1CC(COc2cc(-c3ccc(O)cc3)cc3[nH]ncc23)C1 [compound of formula (I)]
serious AEs (SAD cohorts): No serious AEs | severity of reported treatment-emergent AEs (SAD cohorts): mild | AEs considered related to study drug (diarrhea, abdominal discomfort, and vomiting) (SAD cohorts, 2000 mg): Three | changes from predose baseline in laboratory assessments (lipid, coagulation, hematology), vital signs or ECGs (SAD cohorts, any time point postdose): No clinically significant changes | Most frequent TEAEs: Apthous ulcer (single oral dose 100 mg): 1 (17) | Most frequent TEAEs: Back pain (single oral dose 100 mg): 1 (17) | Most frequent TEAEs: Diarrhea (single oral dose 100 mg): 0 | Most frequent TEAEs: Headache (single oral dose 100 mg): 1 (17) | Most frequent TEAEs: Pain in extremity (single oral dose 100 mg): 3 (50) | Subjects with TEAEs: Any TEAE (single oral dose 100 mg): 4 (67) | Subjects with TEAEs: Moderate or severe TEAE (single oral dose 100 mg): 0 | Subjects with TEAEs: Seriou TEAE (single oral dose 100 mg): 0 | Subjects with TEAEs: TEAE leading to discontinuation (single oral dose 100 mg): 0 | Total number of TEAEs (single oral dose 100 mg): 8 | Most frequent TEAEs: Apthous ulcer (single oral dose 300 mg): 0 | Most frequent TEAEs: Back pain (single oral dose 300 mg): 0 | Most frequent TEAEs: Diarrhea (single oral dose 300 mg): 0 | Most frequent TEAEs: Headache (single oral dose 300 mg): 0 | Most frequent TEAEs: Pain in extremity (single oral dose 300 mg): 1 (17) | Subjects with TEAEs: Any TEAE (single oral dose 300 mg): 2 (33) | Subjects with TEAEs: Moderate or severe TEAE (single oral dose 300 mg): 0 | Subjects with TEAEs: Seriou TEAE (single oral dose 300 mg): 0 | Subjects with TEAEs: TEAE leading to discontinuation (single oral dose 300 mg): 0 | Total number of TEAEs (single oral dose 300 mg): 2 | Most frequent TEAEs: Apthous ulcer (single oral dose 1000 mg): 0 | Most frequent TEAEs: Back pain (single oral dose 1000 mg): 1 (17) | Most frequent TEAEs: Diarrhea (single oral dose 1000 mg): 1 (17) | Most frequent TEAEs: Headache (single oral dose 1000 mg): 0 | Most frequent TEAEs: Pain in extremity (single oral dose 1000 mg): 0 | Subjects with TEAEs: Any TEAE (single oral dose 1000 mg): 2 (33) | Subjects with TEAEs: Moderate or severe TEAE (single oral dose 1000 mg): 0 | Subjects with TEAEs: Seriou TEAE (single oral dose 1000 mg): 0 | Subjects with TEAEs: TEAE leading to discontinuation (single oral dose 1000 mg): 0 | Total number of TEAEs (single oral dose 1000 mg): 6 | Most frequent TEAEs: Apthous ulcer (single oral dose 2000 mg): 1 (17) | Most frequent TEAEs: Back pain (single oral dose 2000 mg): 0 | Most frequent TEAEs: Diarrhea (single oral dose 2000 mg): 1 (17) | Most frequent TEAEs: Headache (single oral dose 2000 mg): 1 (17) | Most frequent TEAEs: Pain in extremity (single oral dose 2000 mg): 0 | Subjects with TEAEs: Any TEAE (single oral dose 2000 mg): 3 (50) | Subjects with TEAEs: Moderate or severe TEAE (single oral dose 2000 mg): 0 | Subjects with TEAEs: Seriou TEAE (single oral dose 2000 mg): 0 | Subjects with TEAEs: TEAE leading to discontinuation (single oral dose 2000 mg): 0 | Total number of TEAEs (single oral dose 2000 mg): 6 | tolerability (single dose up to 2000 mg): generally well-tolerated
